Test results from patent publication EP2873675A1, “Peptide-based peroxidase inhibitors and methods of using same” (The Medical College of Wisconsin, Inc., priority 2013, dated 2015).
Entries after “also recorded” stand apart in the source; their conditions may differ. Residues, ends and D or L forms follow the SMILES beside them.

How the values were obtained:
MPO [1] = experiment: MPO-mediated LDL malondialdehyde (MDA) formation; format: biochemical; conditions: increasing concentrations; LDL 0.5 mg/mL, MPO 50 nM, H2O2 50 µM, NO2 50 µM
Procedure: MPO-mediated LDL Malondialdehyde (MDA) Formation: Reaction mixtures contained LDL (0.5 mg/mL), NaNO2 (50 µM), H2O2 (50 µM), MPO (50 nM) and increasing concentrations of KYC in a phosphate buffer (100 mM, pH 7.4) containing DTPA (100 µM). After incubation at 37 °C for 4 h, the reactions were stopped by addition of catalase (2,000 units/mL). The formation of MDA was determined according to a published procedure. Briefly, incubation mixtures (containing 25 mM BHT) were adjusted to pH 1.5 and incubated at 60 °C for 80 min to hydrolyze the Schiff Bases formed from MDA and protein. The samples were mixed with 3-fold volume of N-methyl-2-phenylindole (13.4 mM in acetonitrile/methanol (3:1)). After centrifugation (13000 g, 5 min) 330 µL of the supernatants were mixed with 57.5 µL of concentrated HCl and incubated at 45 °C for another 60 min. Finally, after centrifugation (13000 g, 5 min), total MDA in the samples was determined from the absorbance at 586 nm using a UV-Vis spectrophotometer (Agilent Model 8453).

MPO [2] = experiment: MPO-mediated LDL oxidation (conjugated diene formation, absorbance at 234 nm); format: biochemical; conditions: 25 µM; in the absence of nitrite
MPO [3] = experiment: MPO-mediated nitration of bovine serum albumin (western blot); format: biochemical; conditions: for MPO-mediated BSA nitration: H2O2 100 µM, nitrite 100 µM
Procedure: MPO-mediated Nitration of Bovine Serum Albumin (BSA). BSA (0.5 mg/mL) was incubated with MPO (20 nM), H2O2 (100 µM), nitrite (100 µM) and increasing concentrations of KYC in phosphate buffer (100 mM, pH 7.4) containing DTPA (100 µM) for 30 min. Reactions were stopped by addition of catalase. Nitrotyrosine formation was assessed by western blot analysis.
MPO-mediated Nitration of Bovine Serum Albumin (BSA): BSA (0.5 mg/mL) was incubated with MPO (20 nM), H2O2 (25 µM), NaNO2 (50 µM) and increasing concentrations of KYC in phosphate buffer (100 mM, pH 7.4) containing DTPA (100 µM) for 30 min. Reactions were halted by addition of catalase (2,000 units/mL). NO2Tyr formation was assessed by western blot analysis with an anti-NO2Tyr rabbit polyclonal antibody (EMD, Gibbstown, NJ).

[4] = Solubility in water / physiological buffers; format: physicochemical; conditions: can be added directly to physiological buffers
NADPH oxidase (NOX) = experiment: PMA-stimulated HL-60 cell superoxide formation (SOD-inhibitable cytochrome C reduction); format: cell-based, human; conditions: cytochrome C assay
Procedure: PMA-induced Superoxide Anion Formation. HL-60 cells were cultured in RPMI 1640 medium containing 10 % FCS (passage 20-50). HL-60 cells were harvested by centrifugation (1000 rpm, 10 min), washed 2X with phosphate buffer (10 mM, pH 7.4) with NaCl (138 mM), KCl (2.67 mM), CaCl2 (0.901 mM), MgCl2 (0.493 mM) and glucose (1mg/ml) to remove culture medium. The HL-60 cells (6 x10^6/0.5ml) were re-suspended in DPBS. After stimulation with PMA (10 µM), the HL-60 cells were incubated with cytochrome C (40 µM) with or without superoxide dismutase at 37°C for 30 min. The reaction was stopped by centrifugation. Cytochrome C reduction was measured at 550 nm on a UV-Vis spectrophotometer (Agilent, Model 8453).
PMA-stimulated HL-60 cell O2^•- Formation: HL-60 cells were harvested by centrifugation (1000 rpm, 10 min), washed twice with DPBS with glucose to remove culture medium. The HL-60 cells (1.2 x10^7/ml) were re-suspended in DPBS with glucose. After stimulation with PMA (10 µM), the HL-60 cells were incubated with cytochrome C (40 µM) with or without superoxide dismutase (500 units/mL) at 37 °C for 10 min and then the HL-60 cells were removed by centrifugation. Cytochrome C reduction in supernatants was measured at 550 nm using a UV-Vis spectrophotometer (Agilent, Model 8453).

SCD mice = experiment: WBC counts in SCD mice (cytometry); format: in vivo; conditions: SCD mice treated for three weeks
Procedure: MPO improves vascular function in SCD mice. To determine whether inhibiting MPO improves vascular function and/or reduces inflammation in vivo, SCD mice were treated with KYC for three weeks. […] Such physiological and structural changes are consistent with immunofluorescent studies showing that chlorotyrosine and MPO levels are reduced in the aortas of KYC-treated SCD mice compared with non-treated SCD mice (Fig. 13). High WBC counts are indicative of on-going inflammation in SCD and predictive of future vaso-occlusive events. Accordingly, WBC levels were quantified in the SCD mice using standard cytometry assays.

## CC(=O)N[C@@H](CCCCN)C(=O)N[C@@H](Cc1ccc(O)cc1)C(=O)N[C@@H](CS)C(N)=O [KYC, N-acetyl Lysyltyrosylcysteine amide] (Ac-Lys-Tyr-Cys-NH2)
MPO [1]
  MPO-mediated MDA formation in LDL: dose-dependently inhibited
MPO [2]
  MPO/H2O2-mediated LDL oxidation: inhibited LDL oxidation; also recorded: did not increase LDL oxidation
MPO [3]; 30 µM
  MPO-mediated BSA nitration: inhibits
MPO [3]; 50 µM, H2O2 25 µM, NaNO2 50 µM
  NO2Tyr formation in BSA: essentially ablated
MPO [3]; 250 µM
  MPO-mediated BSA nitration: essentially ablates
[4]
  solubility in water: highly water soluble
NADPH oxidase (NOX)
  O2•- production in PMA-stimulated HL-60 cells: neither KYC nor KYC disulfide have any significant effect; also recorded: Neither KYC nor KYC disulfide had any significant effect
SCD mice
  WBC counts: more than half; also recorded: reduced by half
